Source: patent US9315438B2, “Optically pure benzyl-4-chlorophenyl-C-glucoside derivative” (XUANZHU PHARMA CO., LTD., priority 2014, dated 2016)

Assays:
[1] = biological target: human SGLT-1 (Homo sapiens (Human), UniProt P13866); assay: In-vitro [14C]-AMG uptake inhibition assay in CHO cells stably expressing human SGLT-1; format: cell-based; details: human SGLT-1 in CHO cells
Method: In the in-vitro assay for the pharmacological activities of the present compounds, the human SGLT-2 and SGLT-1 sequences were transfected to Chinese hamster ovary cells to express stably. By measuring inhibition of the sodium dependent adsorption of [^14C]-labeled […]-D-glucopyranoside (AMG) into the cells, the half-inhibition concentration IC50 was determined. Buffer A (KRH—Na^+): 120 mM NaCl, 4.7 mM KCl, 1.2 mM MgCl2, 2.2 mM CaCl2, 10 mM HEPES (PH 7.4 with 1 mM Tris). Buffer A− (KRH—NMG): 120 mM NMG, 4.7 mM KCl, 1.2 mM MgCl2, 2.2 mM CaCl2, 10 mM HEPES (PH 7.4 with 1 mM Tris). Buffer D: 120 mM NaCl, 4.7 mM KCl, 1.2 mM MgCl2, 2.2 mM CaCl2, 10 mM HEPES, 0.5 mM phlorizin (PH 7.4 with 1 mM Tris). Assay method: Human SGLT-2 and SGLT-1 sequences were stably expressed in the CHO cells. The cell culture was conducted in a 96-well plate for 12 hr. The plate was washed with KRH—Na+(Buffer A) or KRH-NMG (Buffer A−) buffering solution for three times, 2004/well. Then the plate was added with a buffering solution containing Buffer A or Buffer A− plus [^14C]-AMG (10 μCi/mL), 100 μL/well. The cell culture was conducted at 37° C. for 1 hr. Then, 100 μL of an ice pre-cooled buffering solution (Buffer D) was added to terminate the assay. The plate was washed for five times. Then an ice pre-cooled lytic buffering solution (100 mM NaOH solution) was added, 20 μL/well, and the centrifugation at 600 rpm was conducted for 5 mins. Then Microscint 40 solution was added, 80 μl/well, and the centrifugation at 600 rpm was conducted for 5 mins. Finally, the radioactivity of [^14C]-AMG was detected with MicroBeta Trilux (purchased from PerkinElmer Co. Ltd.) according to the scintillation counting method, and the half-inhibition concentration IC50 was calculated.

[2] = biological target: human SGLT-2 (Homo sapiens (Human), UniProt P31639); assay: In-vitro [14C]-AMG uptake inhibition assay in CHO cells stably expressing human SGLT-2; format: cell-based; details: for Selectivity: SGLT-1 IC50 / SGLT-2 IC50
Chain of human SGLT-2 (P31639 whole entry): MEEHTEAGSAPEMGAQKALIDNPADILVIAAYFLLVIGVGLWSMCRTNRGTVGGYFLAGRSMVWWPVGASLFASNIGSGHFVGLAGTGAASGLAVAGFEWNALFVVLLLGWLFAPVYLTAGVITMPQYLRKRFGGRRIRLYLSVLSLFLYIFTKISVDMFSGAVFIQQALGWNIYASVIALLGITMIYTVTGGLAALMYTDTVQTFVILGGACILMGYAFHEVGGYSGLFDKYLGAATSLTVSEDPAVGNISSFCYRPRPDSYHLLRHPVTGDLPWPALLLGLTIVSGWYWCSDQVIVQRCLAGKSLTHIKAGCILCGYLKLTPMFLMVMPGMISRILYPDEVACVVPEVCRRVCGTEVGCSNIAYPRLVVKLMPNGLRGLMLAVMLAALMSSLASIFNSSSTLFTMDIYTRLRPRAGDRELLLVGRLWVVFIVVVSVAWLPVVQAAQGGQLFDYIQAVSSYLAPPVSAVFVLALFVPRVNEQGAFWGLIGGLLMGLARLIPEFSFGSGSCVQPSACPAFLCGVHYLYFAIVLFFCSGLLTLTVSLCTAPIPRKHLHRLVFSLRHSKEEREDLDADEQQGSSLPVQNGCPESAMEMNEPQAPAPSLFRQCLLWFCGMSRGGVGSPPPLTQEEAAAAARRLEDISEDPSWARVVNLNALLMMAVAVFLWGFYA
Method: In the in-vitro assay for the pharmacological activities of the present compounds, the human SGLT-2 and SGLT-1 sequences were transfected to Chinese hamster ovary cells to express stably. By measuring inhibition of the sodium dependent adsorption of [^14C]-labeled […]-D-glucopyranoside (AMG) into the cells, the half-inhibition concentration IC50 was determined.
Buffer A (KRH—Na^+): 120 mM NaCl, 4.7 mM KCl, 1.2 mM MgCl2, 2.2 mM CaCl2, 10 mM HEPES (PH 7.4 with 1 mM Tris).
Buffer A− (KRH—NMG): 120 mM NMG, 4.7 mM KCl, 1.2 mM MgCl2, 2.2 mM CaCl2, 10 mM HEPES (PH 7.4 with 1 mM Tris).
Buffer D: 120 mM NaCl, 4.7 mM KCl, 1.2 mM MgCl2, 2.2 mM CaCl2, 10 mM HEPES, 0.5 mM phlorizin (PH 7.4 with 1 mM Tris).
Assay method: Human SGLT-2 and SGLT-1 sequences were stably expressed in the CHO cells. The cell culture was conducted in a 96-well plate for 12 hr. The plate was washed with KRH—Na+(Buffer A) or KRH-NMG (Buffer A−) buffering solution for three times, 2004/well. Then the plate was added with a buffering solution containing Buffer A or Buffer A− plus [^14C]-AMG (10 μCi/mL), 100 μL/well. The cell culture was conducted at 37° C. for 1 hr. Then, 100 μL of an ice pre-cooled buffering solution (Buffer D) was added to terminate the assay. The plate was washed for five times. Then an ice pre-cooled lytic buffering solution (100 mM NaOH solution) was added, 20 μL/well, and the centrifugation at 600 rpm was conducted for 5 mins. Then Microscint 40 solution was added, 80 μl/well, and the centrifugation at 600 rpm was conducted for 5 mins. Finally, the radioactivity of [^14C]-AMG was detected with MicroBeta Trilux (purchased from PerkinElmer Co. Ltd.) according to the scintillation counting method, and the half-inhibition concentration IC50 was calculated.

[3] = Rat in-vivo pharmacokinetic assay (PO); details: male SD rats, PO 10 mg/kg, plasma
Method: Assay animals: 6-8 weeks aged male SD rats (purchased from Vital River Laboratories), 3 rats per compound, weighing 200-240 g.
Solvent: 0.5% MC (methyl cellulose) solution+0.1% SDS (sodium dodecyl sulfate).
Intragastric administration (PO): See Table 2
Blood collection: each of 200 μL whole blood were collected at 0.17 hr, 0.5 hr, 1 hr, 2 hr, 4 hr, 6 hr, 8 hr, 24 hr, 30 hr, 48 hr, 54 hr and 72 hr. The collected blood samples were centrifuged at 4° C. at 8000 rpm in a low temperature high-speed centrifuge (5415R, Eppendorf) for 6 mins to separate the blood plasma. The separated plasma was preserved at −80° C. in a refrigerator.
20 μL of the plasma was carefully taken out, to which was added 600 µL of an internal standard MTBE (methyl tert-butyl ether) solution (containing internal standard dapagliflozin 25 ng/ml). The plasma was subjected to a vortex at 1500 rpm for 10 mins, and then centrifuged at 12000 rpm for 5 mins. 4004 of the supernatant was taken and blow-dried with nitrogen gas. The dried substance was redissolved with 2004 of a redissolving solution (acetonitrile:water=7:3). The solution was subjected to a vortex for 10 mins, and analyzed with LC-MS/MS (API4000, Applied Biosystems).

Chain of human SGLT-1 (P13866 whole entry): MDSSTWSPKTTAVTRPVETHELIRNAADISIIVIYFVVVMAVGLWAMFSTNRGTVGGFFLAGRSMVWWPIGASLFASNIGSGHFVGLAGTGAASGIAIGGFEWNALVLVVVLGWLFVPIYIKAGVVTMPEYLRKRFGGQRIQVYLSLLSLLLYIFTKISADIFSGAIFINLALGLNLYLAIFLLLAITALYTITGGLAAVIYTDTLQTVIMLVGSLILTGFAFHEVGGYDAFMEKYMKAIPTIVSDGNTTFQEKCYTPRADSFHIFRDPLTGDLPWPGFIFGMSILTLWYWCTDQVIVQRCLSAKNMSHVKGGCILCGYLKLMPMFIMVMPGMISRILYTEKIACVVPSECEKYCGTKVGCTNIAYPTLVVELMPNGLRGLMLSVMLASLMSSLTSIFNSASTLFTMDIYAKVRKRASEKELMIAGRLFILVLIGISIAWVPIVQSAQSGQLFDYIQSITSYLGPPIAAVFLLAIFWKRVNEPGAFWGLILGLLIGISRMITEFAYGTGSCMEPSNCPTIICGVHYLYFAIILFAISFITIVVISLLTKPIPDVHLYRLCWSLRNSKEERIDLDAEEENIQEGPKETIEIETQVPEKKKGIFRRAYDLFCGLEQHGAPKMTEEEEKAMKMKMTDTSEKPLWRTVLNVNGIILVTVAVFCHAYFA

| Structure (SMILES) | IC50 [1] [µM] | Selectivity [2] | IC50 ([2]; human SGLT-2 in CHO cells, [14C]-AMG uptake) [µM] | AUC(0-inf) [3] [ng·h/mL] | AUC(0-t) [3] [ng·h/mL] | Cmax [3] [ng/mL] | Tmax [3] [h] | half-life [3] [h] |
| --- | --- | --- | --- | --- | --- | --- | --- | --- |
| OC[C@H]1O[C@@H](c2ccc(Cl)c(Cc3ccc(O[C@@H]4C[C@@H]5C[C@@H]5C4)cc3)c2)[C@H](O)[C@@H](O)[C@@H]1O [Compound represented by formula (III), (2S,3R,4R,5S,6R)-2-(3-(4-(((1R,3r,5S)-bicyclo[3.1.0]hexan-3-yl)oxy)benzyl)-4-chlorophenyl)-6-(hydroxymethyl)tetrahydro-2H-pyran-3,4,5-triol] | 3.08 | 392.77 | – | – | – | – | – | – |
| OC[C@H]1O[C@H](c2ccc(Cl)c(Cc3ccc(O[C@@H]4C[C@@H]5C[C@@H]5C4)cc3)c2)[C@H](O)[C@@H](O)[C@@H]1O [Compound represented by formula (V), (2R,3R,4R,5S,6R)-2-(3-(4-(((1R,3r,5S)-bicyclo[3.1.0]hexan-3-yl)oxy)benzyl)-4-chlorophenyl)-6-(hydroxymethyl)tetrahydro-2H-pyran-3,4,5-triol] | 75.5 | 267.77 | – | – | – | – | – | – |
| OC[C@H]1O[C@@H](c2ccc(Cl)c(Cc3ccc(O[C@H]4C[C@@H]5C[C@@H]5C4)cc3)c2)[C@H](O)[C@@H](O)[C@@H]1O [Compound represented by formula (II), (2S,3R,4R,5S,6R)-2-(3-(4-(((1R,3s,5S)-bicyclo[3.1.0]hexan-3-yl)oxy)benzyl)-4-chlorophenyl)-6-(hydroxymethyl)tetrahydro-2H-pyran-3,4,5-triol] | 17.2 | – | 0.0025 | 92100 | 92100 | 6380 | 1 | 8.98 |
| OC[C@H]1O[C@H](c2ccc(Cl)c(Cc3ccc(O[C@H]4C[C@@H]5C[C@@H]5C4)cc3)c2)[C@H](O)[C@@H](O)[C@@H]1O [Compound represented by formula (IV), (2R,3R,4R,5S,6R)-2-(3-(4-(((1R,3s,5S)-bicyclo[3.1.0]hexan-3-yl)oxy)benzyl)-4-chlorophenyl)-6-(hydroxymethyl)tetrahydro-2H-pyran-3,4,5-triol] | 111 | 100.34 | – | – | – | – | – | – |
